Test systems include MDA-MB-435; OVCAR-5 ovarian; SK-MEL-28 melanoma; SK-OV-3 ovarian; SN12C renal; HCT-116 colon; NCI-H226 lung; HCT-15 colon; A549 NSCLC; HOP-62 NSCLC.
Holding throughout (test): DTP human tumour cell line panel, 48 h

Structures are written as SMILES.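 Briefly, cells in 96-well plates were exposed to five compound concentrations for 48 h, and endpoints were estimated by linear interpolation. At the GI50, growth is halved. TGI: total growth inhibition.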

As for `CN(C)CCN1C(=O)c2cccc3cccc(c23)C1=O`, the GI50 is greater than 25 µM in the assay on MDA-MB-435; 18.1 µM in the assay on OVCAR-5 ovarian; greater than 25 µM with SK-MEL-28 melanoma; 24.5 µM with SK-OV-3 ovarian; 12.7 µM in the assay on SN12C renal; 9.57 µM in the assay on HCT-116 colon. The GI50 is 12.2 µM with NCI-H226 lung, 11.4 µM with HCT-15 colon, 12.9 µM with A549 NSCLC and greater than 25 µM in the assay on HOP-62 NSCLC. The TGI with MDA-MB-435, in the assay on OVCAR-5 ovarian, with SK-MEL-28 melanoma, in the assay with SK-OV-3 ovarian, in the assay with SN12C renal and in the assay on HCT-116 colon was greater than 25 µM throughout. The TGI in the assay with NCI-H226 lung, with HCT-15 colon, in the assay on A549 NSCLC and in the assay with HOP-62 NSCLC was greater than 25 µM each time.

On to `Cn1c(=O)c(Oc2ccc(F)cc2F)cc2cnc(NCCS(C)(=O)=O)nc21`, for which the GI50 with MDA-MB-435, in the assay with OVCAR-5 ovarian, in the assay with SK-MEL-28 melanoma, in the assay with SK-OV-3 ovarian, with SN12C renal and in the assay on HCT-116 colon was greater than 25 µM throughout. For the same compound, the GI50 with NCI-H226 lung, in the assay with HCT-15 colon, in the assay on A549 NSCLC and in the assay with HOP-62 NSCLC was greater than 25 µM throughout. Also, the TGI with MDA-MB-435, with OVCAR-5 ovarian, with SK-MEL-28 melanoma, in the assay with SK-OV-3 ovarian, in the assay on SN12C renal and in the assay on HCT-116 colon was greater than 25 µM in each case. Moreover, the TGI in the assay on NCI-H226 lung, with HCT-15 colon, in the assay on A549 NSCLC and in the assay with HOP-62 NSCLC was greater than 25 µM throughout.

For the compound `COc1ccc(-c2nn(-c3cccc(NC(=O)c4ccc(N5CCOCC5)c(C(F)(F)F)c4)c3)cc2-c2ccncc2)cc1Cl`, the GI50 with MDA-MB-435 was 2.6 µM; with OVCAR-5 ovarian it was greater than 50 µM; with SK-MEL-28 melanoma, 9.97 µM; in the assay on SK-OV-3 ovarian, 32.8 µM; with SN12C renal, greater than 50 µM; with HCT-116 colon, 3.74 µM. The GI50 in the assay with NCI-H226 lung was 21.3 µM; in the assay on HCT-15 colon, 2.99 µM; with A549 NSCLC it was 6.52 µM; in the assay on HOP-62 NSCLC, 11.4 µM. Further, the TGI in the assay on MDA-MB-435 is 35 µM; in the assay with OVCAR-5 ovarian it was greater than 50 µM; in the assay on SK-MEL-28 melanoma, greater than 50 µM; in the assay on SK-OV-3 ovarian it was greater than 50 µM; in the assay on SN12C renal, greater than 50 µM; with HCT-116 colon, greater than 50 µM. The concentration for total growth inhibition (TGI) in the assay on NCI-H226 lung, with HCT-15 colon, in the assay on A549 NSCLC and in the assay with HOP-62 NSCLC was greater than 50 µM throughout.

As to `O=C1OC(CN2CCOCC2)CN1/N=C/c1ccc([N+](=O)[O-])o1` (stereo not given), the TGI was 33.3 µM in the assay with MDA-MB-435; greater than 100 µM with OVCAR-5 ovarian; greater than 100 µM with SK-MEL-28 melanoma; greater than 100 µM in the assay on SK-OV-3 ovarian; 92 µM with SN12C renal; 39.3 µM in the assay on HCT-116 colon. Besides, the TGI with NCI-H226 lung was greater than 100 µM; with HCT-15 colon, 39.2 µM; with A549 NSCLC, greater than 100 µM; in the assay with HOP-62 NSCLC, greater than 100 µM.

On to `COC(=O)[C@@H](C)C[C@H](Cc1ccccc1)NC(=O)c1csc([C@@H](C[C@H](C(C)C)N(C)C(=O)[C@H](C)NC(=O)[C@H]2CCCCN2C)OC(C)=O)n1`, for which the GI50 in the assay with MDA-MB-435 is 0.121 µM; in the assay with OVCAR-5 ovarian it was 9.48 µM; in the assay with SK-MEL-28 melanoma, greater than 25 µM; with SK-OV-3 ovarian, 11 µM; in the assay on SN12C renal, 2.08 µM; in the assay with HCT-116 colon it was 0.774 µM. Also, the GI50 with NCI-H226 lung is greater than 25 µM; in the assay with HCT-15 colon it was 3.37 µM; with A549 NSCLC, 8.67 µM; in the assay on HOP-62 NSCLC, 3.27 µM. Moreover, the TGI was 0.522 µM with MDA-MB-435; greater than 25 µM in the assay with OVCAR-5 ovarian; greater than 25 µM in the assay on SK-MEL-28 melanoma; greater than 25 µM in the assay with SK-OV-3 ovarian; greater than 25 µM with SN12C renal; greater than 25 µM with HCT-116 colon. The TGI with NCI-H226 lung, with HCT-15 colon, in the assay on A549 NSCLC and in the assay on HOP-62 NSCLC was greater than 25 µM throughout.

Regarding `CNC(=O)OCC1C2=C(C(=O)C(C)=C(N)C2=O)N2CC3C(N3C)C12OC` (stereo not given), the TGI is greater than 100 µM in the assay on MDA-MB-435; greater than 100 µM with OVCAR-5 ovarian; greater than 100 µM in the assay with SK-MEL-28 melanoma; greater than 100 µM in the assay with SK-OV-3 ovarian; greater than 100 µM with SN12C renal; 30.4 µM with HCT-116 colon. The TGI with NCI-H226 lung was greater than 100 µM; in the assay with HCT-15 colon it was 27 µM; in the assay on A549 NSCLC, 29.5 µM; with HOP-62 NSCLC, greater than 100 µM.

Take `CCc1nc(N)nc(N)c1-c1ccc(Cl)c(N=CN(C)C)c1`: the TGI with MDA-MB-435, in the assay on OVCAR-5 ovarian, in the assay on SK-MEL-28 melanoma, in the assay with SK-OV-3 ovarian, in the assay on SN12C renal and in the assay with HCT-116 colon was greater than 100 µM each time. Further, the concentration for total growth inhibition (TGI) in the assay with NCI-H226 lung, in the assay on HCT-15 colon, with A549 NSCLC and in the assay on HOP-62 NSCLC was greater than 100 µM throughout.

Turning to `O=C1OC(c2ccccc2)=N/C1=C\c1cccc(F)c1`, the TGI with MDA-MB-435, in the assay on OVCAR-5 ovarian, with SK-MEL-28 melanoma, in the assay on SK-OV-3 ovarian, in the assay on SN12C renal and in the assay on HCT-116 colon was greater than 100 µM in each case. The TGI with NCI-H226 lung was 92.8 µM; in the assay with HCT-15 colon, greater than 100 µM; in the assay with A549 NSCLC, greater than 100 µM; in the assay with HOP-62 NSCLC, 92.6 µM.

As to `Cc1nc(Nc2nc3ccccc3o2)nc(-c2cccc([N+](=O)[O-])c2)c1C(=O)Nc1ccc(F)c(Cl)c1`, the GI50 with MDA-MB-435 is 2.16 µM; in the assay on OVCAR-5 ovarian, 3.8 µM; with SK-MEL-28 melanoma, 3.83 µM; with SK-OV-3 ovarian, 2.8 µM; in the assay with SN12C renal, 2.64 µM; in the assay with HCT-116 colon, 1.98 µM. Besides, the GI50 was 3.05 µM in the assay on NCI-H226 lung, 2.29 µM with HCT-15 colon, 1.92 µM in the assay with A549 NSCLC and 2.58 µM with HOP-62 NSCLC. Further, the TGI with MDA-MB-435 is 8.01 µM; in the assay on OVCAR-5 ovarian it was greater than 100 µM; with SK-MEL-28 melanoma it was greater than 100 µM; in the assay with SK-OV-3 ovarian, greater than 100 µM; with SN12C renal, 20.1 µM; in the assay with HCT-116 colon, greater than 100 µM. The TGI with NCI-H226 lung was greater than 100 µM; with HCT-15 colon, greater than 100 µM; in the assay with A549 NSCLC it was greater than 100 µM; with HOP-62 NSCLC, 50.4 µM.

As usually defined, the GI50 is the concentration that inhibits growth by half. As a reminder, the TGI is the concentration at which net growth stops. Low readings indicate greater sensitivity of the cells, high ones lower sensitivity of the cells.

For the origin of these results see PubChem BioAssay (NCI).
